*1 amine or outer side, *2 acyl side, *3 side chain or, on linkers, in order; H or OH if unused. Where a SMILES comes first, the peptide text is derived from it. The star is where a group is joined. AMC = Cc1cc(=O)oc2cc(N*)ccc12; Suc = O=C(CCC(=O)[*:2])[*:1]
The compounds below were run against T1, NAD-dependent protein deacylase sirtuin-5, mitochondrial (Homo sapiens, UniProt Q9NXA8) (assay: Binding affinity to human SIRT5 (34 to 269 residues) assessed as thermal stabilization by measuring melting temperature at 60 uM incubated for 10 mins in presence of NAD+ by SYPRO orange dye based thermal shift assay (reference value: 66.32 degreeC)).
Target sequence in this assay (Q9NXA8 37-310 limits assumed): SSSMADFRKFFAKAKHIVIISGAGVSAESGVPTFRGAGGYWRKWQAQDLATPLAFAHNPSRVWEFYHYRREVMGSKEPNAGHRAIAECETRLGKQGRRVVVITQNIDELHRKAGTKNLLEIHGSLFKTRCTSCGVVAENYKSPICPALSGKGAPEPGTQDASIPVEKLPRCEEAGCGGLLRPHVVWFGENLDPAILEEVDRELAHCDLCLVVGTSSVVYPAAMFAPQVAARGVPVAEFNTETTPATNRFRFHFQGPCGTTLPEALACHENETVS
Work on `CC(=O)N[C@@H](CC(C)C)C(=O)NCC(=O)N[C@@H](CO)C(=O)N[C@@H](CCCCNC(=O)CCC(=O)O)C(=O)Nc1ccc2c(C)cc(=O)oc2c1` (Ac-LGSK(Suc)-{AMC}) yielded a Tm of 67.3 °C.

What follows are compounds tested against T1, NAD-dependent protein deacylase sirtuin-5, mitochondrial (assay: Binding affinity to human SIRT5 (34 to 269 residues) assessed as thermal stabilization by measuring change in melting temperature at 60 uM incubated for 10 mins in presence of NAD+ by SYPRO orange dye based thermal shift assay).
Target sequence in this assay (Q9NXA8 37-310 limits assumed): as above
Compound `CC(=O)N[C@@H](CC(C)C)C(=O)NCC(=O)N[C@@H](CO)C(=O)N[C@@H](CCCCNC(=O)CCC(=O)O)C(=O)Nc1ccc2c(C)cc(=O)oc2c1` (Ac-LGSK(Suc)-{AMC}) has a ΔTm of 0.97 °C.

These compounds were tested against T2, NAD-dependent protein deacetylase sirtuin-2 (Homo sapiens, UniProt Q8IXJ6) (assay: Inhibition of recombinant SIRT2 (unknown origin) using Ac-Glu-Thr-Asp-Lys (Dec)-AMC as substrate).
T2 sequence (Q8IXJ6 whole entry): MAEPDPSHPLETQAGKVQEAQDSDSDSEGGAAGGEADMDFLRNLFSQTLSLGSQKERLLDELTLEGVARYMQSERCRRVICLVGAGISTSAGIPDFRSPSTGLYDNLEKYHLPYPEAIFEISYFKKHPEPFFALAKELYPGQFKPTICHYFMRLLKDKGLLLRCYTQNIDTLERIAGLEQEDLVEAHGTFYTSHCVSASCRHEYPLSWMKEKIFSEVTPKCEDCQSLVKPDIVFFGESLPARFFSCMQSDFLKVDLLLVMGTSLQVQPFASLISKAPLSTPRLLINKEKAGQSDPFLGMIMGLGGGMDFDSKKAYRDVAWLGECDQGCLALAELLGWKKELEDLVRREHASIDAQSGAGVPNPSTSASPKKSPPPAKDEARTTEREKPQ
`O=C(O)CCNC(=S)NCCCNc1nc(Nc2ccccc2Cl)ncc1C(=O)N1CC[C@H](c2ccccc2)C1` gave an IC50 of 39.6 µM.

Each compound was assayed against T1, NAD-dependent protein deacylase sirtuin-5, mitochondrial (assay: Inhibition of human SIRT5 (34 to 269 residues) using Ac-Leu-Gly-Ser-Lys (Su)-AMC as fluorogenic substrate in presence of NAD+).
Target sequence in this assay (Q9NXA8 whole entry, the tested form may be a part): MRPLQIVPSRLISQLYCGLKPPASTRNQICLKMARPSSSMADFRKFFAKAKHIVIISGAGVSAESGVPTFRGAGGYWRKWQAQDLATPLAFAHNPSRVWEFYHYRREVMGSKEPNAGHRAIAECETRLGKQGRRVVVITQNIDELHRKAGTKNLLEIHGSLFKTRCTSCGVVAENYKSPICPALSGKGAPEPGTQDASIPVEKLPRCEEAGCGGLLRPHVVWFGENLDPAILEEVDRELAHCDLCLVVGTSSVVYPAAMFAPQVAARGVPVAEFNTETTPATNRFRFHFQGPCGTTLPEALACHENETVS
In the case of `CCOC(=O)c1cnc(Nc2ccc(Cl)cc2)nc1NCCCNC(=S)NCCC(=O)O`, the IC50 is reported as 9.4 µM.
In the case of `CC(CCc1ccccc1)NC(=O)c1cnc(Nc2ccccc2Cl)nc1NCCCNC(=S)NCCC(=O)O` (stereo not given), the IC50 is reported as 1.6 µM.
For `O=C(O)CCNC(=S)NCCCNc1nc(Nc2ccccc2Cl)ncc1C(=O)Nc1ccccc1`, the IC50 was 3.18 µM.
`CCOC(=O)c1cnc(Nc2ccccc2Br)nc1NCCCNC(=S)NCCC(=O)O` showed an IC50 of 4.06 µM.
For `Cc1ccccc1NC(=O)c1cnc(Nc2ccccc2Cl)nc1NCCCNC(=S)NCCC(=O)O`, the IC50 was 5.45 µM.
Work on `CC(C)(C)OC(=O)[C@H](NC(=O)c1cnc(Nc2ccccc2Cl)nc1NCCCNC(=S)NCCC(=O)O)c1ccccc1` yielded an IC50 of 1.82 µM.
Work on `O=C(O)CCNC(=S)NCCCNc1nc(Nc2ccccc2Cl)ncc1C(=O)N1CCCC(c2ccccc2)C1` (stereo not given) yielded an IC50 of 3.66 µM.
`CCOC(=O)c1cnc(Nc2c(C)cccc2C)nc1NCCCNC(=S)NCCC(=O)O` gave an IC50 of 3.16 µM.
`O=C(O)CCNC(=S)NCCCNc1nc(Nc2ccccc2Cl)ncc1C(=O)N[C@H]1CCCC[C@@H]1O` was tested, and the IC50 was 8.95 µM.
For `CC(C)(C)OC(=O)[C@@H](NC(=O)c1cnc(Nc2ccccc2Cl)nc1NCCCNC(=S)NCCC(=O)O)c1ccccc1`, the IC50 was 1.55 µM.
With `CCOC(=O)c1cnc(Nc2ccccc2-c2ccccc2)nc1NCCCNC(=S)NCCC(=O)O` the IC50 was 3.98 µM.
`O=C(O)CCNC(=S)NCCCNc1nc(Nc2ccccc2Cl)ncc1C(=O)NC1(c2ccccc2)CC1` showed an IC50 of 2.8 µM.
`C[C@@H](NC(=O)c1cnc(Nc2ccccc2Cl)nc1NCCCNC(=S)NCCC(=O)O)c1ccccc1` gave an IC50 of 1.08 µM.
`CCOC(=O)c1cnc(Nc2ccc(F)cc2)nc1NCCCNC(=S)NCCC(=O)O` was tested, and the IC50 was 7.54 µM.
With `CCOC(=O)c1cnc(Nc2ccccc2Cl)nc1NCCCNC(=S)NCCC(=O)O` the IC50 was 1.9 µM.
For `CC(C)OC(=O)c1cnc(Nc2ccccc2Cl)nc1NCCCNC(=S)NCCC(=O)O`, the IC50 was 2.77 µM.
`O=C(O)CCNC(=S)NCCCNc1nc(Nc2ccccc2Cl)ncc1C(=O)N1CC[C@H](c2ccccc2)C1` showed an IC50 of 0.31 µM.
In the case of `CCOC(=O)c1cnc(Nc2cccc(Br)c2)nc1NCCCNC(=S)NCCC(=O)O`, the IC50 is reported as 22 µM.
Work on `CCCNC(=O)c1cnc(Nc2ccccc2Cl)nc1NCCCNC(=S)NCCC(=O)O` yielded an IC50 of 7.83 µM.
In the case of `CCOC(=O)c1cnc(Nc2cccc(Br)c2C)nc1NCCCNC(=S)NCCC(=O)O`, the IC50 is reported as 3.48 µM.
Work on `CCOC(=O)c1cnc(Nc2cccc(C)c2Br)nc1NCCCNC(=S)NCCC(=O)O` yielded an IC50 of 2.3 µM.
Compound `O=C(O)CCNC(=S)NCCCNc1nc(Nc2ccccc2Cl)ncc1C(=O)N1CCC(c2ccccc2)C1` (stereo not given) has an IC50 of 0.53 µM.
Compound `COc1cc(NC(=O)c2cnc(Nc3ccccc3Cl)nc2NCCCNC(=S)NCCC(=O)O)cc(OC)c1` has an IC50 of 1.54 µM.
In the case of `CCOC(=O)c1cnc(Nc2ccc(C)cc2)nc1NCCCNC(=S)NCCC(=O)O`, the IC50 is reported as 11.6 µM.
For `CCOC(=O)c1cnc(Nc2cccc(Cl)c2)nc1NCCCNC(=S)NCCC(=O)O`, the IC50 was 13.4 µM.
Compound `CCOC(=O)c1cnc(Nc2ccccc2C)nc1NCCCNC(=S)NCCC(=O)O` has an IC50 of 3.53 µM.
`CCOC(=O)c1cnc(Nc2cccc(OC)c2)nc1NCCCNC(=S)NCCC(=O)O` showed an IC50 of 17.1 µM.
`CCOC(=O)c1cnc(Nc2cccc(F)c2C)nc1NCCCNC(=S)NCCC(=O)O` showed an IC50 of 2.38 µM.
In the case of `CCOC(=O)c1cnc(Nc2ccccc2F)nc1NCCCNC(=S)NCCC(=O)O`, the IC50 is reported as 5.87 µM.
`CCOC(=O)c1cnc(Nc2ccccc2)nc1NCCCNC(=S)NCCC(=O)O` gave an IC50 of 7.67 µM.
For `COC(=O)c1cnc(Nc2ccccc2Cl)nc1NCCCNC(=S)NCCC(=O)O`, the IC50 was 3.34 µM.
Compound `O=C(O)CCNC(=S)NCCCNc1nc(Nc2ccccc2Cl)ncc1C(=O)N1CCCC1c1ccccc1` (stereo not given) has an IC50 of 27.3 µM.
`CC[C@H](NC(=O)c1cnc(Nc2ccccc2Cl)nc1NCCCNC(=S)NCCC(=O)O)c1ccccc1` showed an IC50 of 3.72 µM.
With `CCOC(=O)c1cnc(Nc2ccc(Br)cc2)nc1NCCCNC(=S)NCCC(=O)O` the IC50 was 7.52 µM.
For `C[C@H](NC(=O)c1cnc(Nc2ccccc2Cl)nc1NCCCNC(=S)NCCC(=O)O)c1ccccc1`, the IC50 was 1.74 µM.
Work on `O=C(O)CCNC(=S)NCCCNc1nc(Nc2ccccc2Cl)ncc1C(=O)N[C@@H]1C[C@H]1c1ccc(F)c(F)c1` yielded an IC50 of 1.24 µM.
`O=C(O)CCNC(=S)NCCCNc1nc(Nc2ccccc2Cl)ncc1C(=O)NCc1ccccc1` was tested, and the IC50 was 1.11 µM.
With `CCOC(=O)c1cnc(Nc2cccc(C)c2)nc1NCCCNC(=S)NCCC(=O)O` the IC50 was 16.9 µM.
`CCOC(=O)c1cnc(Nc2c(F)cccc2F)nc1NCCCNC(=S)NCCC(=O)O` gave an IC50 of 2.82 µM.
With `CC[C@@H](NC(=O)c1cnc(Nc2ccccc2Cl)nc1NCCCNC(=S)NCCC(=O)O)c1ccccc1` the IC50 was 0.58 µM.
`CCOC(=O)c1cnc(Nc2ccccc2OC)nc1NCCCNC(=S)NCCC(=O)O` was tested, and the IC50 was 10.7 µM.
For `O=C(O)CCNC(=S)NCCCNc1nc(Nc2ccccc2Cl)ncc1C(=O)NCCc1cc2ccccc2[nH]1`, the IC50 was 1.43 µM.
With `O=C(O)CCNC(=S)NCCCNc1nc(Nc2ccccc2Cl)ncc1C(=O)N1CCCC1` the IC50 was 21.5 µM.
Compound `CCOC(=O)c1cnc(Nc2cc(OC)cc(OC)c2)nc1NCCCNC(=S)NCCC(=O)O` has an IC50 of 6.9 µM.
`O=C(O)CCNC(=S)NCCCNc1nc(Nc2ccccc2Cl)ncc1C(=O)N[C@H]1c2ccccc2C[C@H]1O` gave an IC50 of 4.18 µM.
Work on `CCOC(=O)c1cnc(Nc2ccc(Br)cc2C)nc1NCCCNC(=S)NCCC(=O)O` yielded an IC50 of 2.7 µM.
`O=C(O)CCNC(=S)NCCCNc1nc(Nc2ccccc2Cl)ncc1C(=O)Nc1ccccc1-c1ccccc1` was tested, and the IC50 was 4.84 µM.
Work on `O=C(O)CCNC(=S)NCCCNc1nc(Nc2ccccc2Cl)ncc1C(=O)Nc1ccc2ccccc2c1` yielded an IC50 of 5.15 µM.
In the case of `COc1ccccc1NC(=O)c1cnc(Nc2ccccc2Cl)nc1NCCCNC(=S)NCCC(=O)O`, the IC50 is reported as 5.37 µM.
For `O=C(O)CCNC(=S)NCCCNc1nc(Nc2ccccc2Cl)ncc1C(=O)NC1CC1`, the IC50 was 9.56 µM.
With `O=C(O)CCNC(=S)NCCCNc1nc(Nc2ccccc2Cl)ncc1C(=O)N[C@@H](Cc1ccccc1)C(=O)O` the IC50 was 1.71 µM.
`O=C(O)CCNC(=S)NCCCNc1nc(Nc2ccccc2Cl)ncc1C(=O)N1CCOCC1` showed an IC50 of 8.6 µM.
Compound `CCOC(=O)c1cnc(Nc2ccc(OC)cc2)nc1NCCCNC(=S)NCCC(=O)O` has an IC50 of 10.5 µM.
`CCOC(=O)c1cnc(Nc2cccc(F)c2)nc1NCCCNC(=S)NCCC(=O)O` gave an IC50 of 9.57 µM.
With `O=C(O)CCNC(=S)NCCCNc1nc(Nc2ccccc2Cl)ncc1C(=O)N1CCC(c2ccccc2)CC1` the IC50 was 3.54 µM.
`O=C(O)CCNC(=S)NCCCNc1nc(Nc2ccccc2Cl)ncc1C(=O)N[C@@H]1C[C@H]1c1ccccc1` was tested, and the IC50 was 2.54 µM.
`CC(C)CNC(=O)c1cnc(Nc2ccccc2Cl)nc1NCCCNC(=S)NCCC(=O)O` gave an IC50 of 6.72 µM.
Compound `O=C(O)CCNC(=S)NCCCNc1nc(Nc2ccccc2Cl)ncc1C(=O)NC1CCC1` has an IC50 of 7.93 µM.
`O=C(O)CCNC(=S)NCCCNc1nc(Nc2ccccc2Cl)ncc1C(=O)Nc1cccc2ccccc12` gave an IC50 of 2.95 µM.
In the case of `O=C(O)CCNC(=S)NCCCNc1nc(Nc2ccccc2Cl)ncc1C(=O)O`, the IC50 is reported as 1.64 µM.
`CC(C)c1ccccc1NC(=O)c1cnc(Nc2ccccc2Cl)nc1NCCCNC(=S)NCCC(=O)O` was tested, and the IC50 was 2.82 µM.
For `CCOC(=O)c1cnc(Nc2cccc(F)c2Cl)nc1NCCCNC(=S)NCCC(=O)O`, the IC50 was 2.39 µM.

Reference: ChEMBL document CHEMBL5360644, “Structure-Activity Relationship Studies of 2,4,5-Trisubstituted Pyrimidine Derivatives Leading to the Identification of a Novel and Potent Sirtuin 5 Inhibitor against Sepsis-Associated Acute Kidney Injury” (J Med Chem, 2023)
